# Source: ChEMBL document CHEMBL4699567, “hDM2 protein-binding peptides screened from stapled α-helical peptide phage display libraries with different types of staple linkers” (Bioorg Med Chem Lett, 2020)
# Starred links: 1 amine or outer side, 2 acyl side, 3 side chain; linkers in the order of their positions; H or OH if unused. Positions of bridges follow the written chain, without caps; N, C: chain ends. Residues, ends and D or L forms follow the SMILES beside them. *: point of attachment. 5FAM = O=C1OC2(c3ccc(O)cc3Oc3cc(O)ccc32)c2ccc(C(=O)*)cc21; CH2CONH(CH2)4NHCOCH2 = O=C(C[*:1])NCCCCNC(=O)C[*:2]
# How the values were obtained:
# [1] = biological target: T1, E3 ubiquitin-protein ligase Mdm2 (Homo sapiens, UniProt Q00987); test: Binding affinity to human MDM2 assessed as dissociation constant in presence of 50 uM p53 peptide by fluorescence polarization assay
# T1 sequence (Q00987 whole entry): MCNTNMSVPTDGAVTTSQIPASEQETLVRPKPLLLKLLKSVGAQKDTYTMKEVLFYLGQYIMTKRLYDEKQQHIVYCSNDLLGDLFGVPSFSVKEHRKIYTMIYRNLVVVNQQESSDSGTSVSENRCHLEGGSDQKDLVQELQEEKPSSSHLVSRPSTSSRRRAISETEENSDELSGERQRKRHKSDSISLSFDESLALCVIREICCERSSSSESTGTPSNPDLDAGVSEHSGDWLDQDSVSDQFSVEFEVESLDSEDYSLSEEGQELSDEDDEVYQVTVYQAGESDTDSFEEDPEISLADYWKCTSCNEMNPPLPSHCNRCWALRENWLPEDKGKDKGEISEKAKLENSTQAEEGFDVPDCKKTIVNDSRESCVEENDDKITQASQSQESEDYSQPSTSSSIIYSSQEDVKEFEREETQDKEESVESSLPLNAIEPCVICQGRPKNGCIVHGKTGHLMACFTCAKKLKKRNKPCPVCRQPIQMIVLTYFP
# [2] = biological target: T1, E3 ubiquitin-protein ligase Mdm2; test: Binding affinity to human MDM2 assessed as dissociation constant by fluorescence polarization assay
Kd [1],Kd [2],SMILES
445 µM,116 µM,CC[C@H](C)[C@H](NC(=O)[C@H](CCCCN)NC(=O)[C@H](CS)NC(=O)[C@H](CCC(=O)O)NC(=O)[C@H](CCC(N)=O)NC(=O)[C@H](CCC(=O)O)NC(=O)[C@H](CCCCN)NC(=O)[C@H](CC(C)C)NC(=O)[C@H](Cc1c[nH]c2ccccc12)NC(=O)[C@H](CS)NC(=O)[C@H](CCC(=O)O)NC(=O)[C@H](CCSC)NC(=O)[C@H](C)NC(=O)CN)C(=O)N[C@@H](C)C(=O)NCC(=O)NCC(=O)NCC(=O)NCC(=O)N[C@@H](CCCCNC(=O)c1ccc2c(c1)C(=O)OC21c2ccc(O)cc2Oc2cc(O)ccc21)C(N)=O (H-GAMECWLKEQECKIAGGGGK(5FAM)-NH2)
571 µM,178 µM,CSCC[C@H](NC(=O)[C@H](C)NC(=O)CN)C(=O)N[C@@H](CCC(=O)O)C(=O)N[C@H]1CSCC(=O)NCCCCNC(=O)CSC[C@@H](C(=O)N[C@@H](CCCCN)C(=O)N[C@@H](CCCCN)C(=O)N[C@@H](C)C(=O)NCC(=O)NCC(=O)NCC(=O)NCC(=O)N[C@@H](CCCCNC(=O)c2ccc3c(c2)C(=O)OC32c3ccc(O)cc3Oc3cc(O)ccc32)C(N)=O)NC(=O)[C@H](CCC(=O)O)NC(=O)[C@H](CCCCN)NC(=O)[C@H](CCC(=O)O)NC(=O)[C@H](CCCCN)NC(=O)[C@H](CC(C)C)NC(=O)[C@H](Cc2c[nH]c3ccccc23)NC1=O (H-GAMECWLKEKECKKAGGGGK(5FAM)-NH2; linker 5-12 via CH2CONH(CH2)4NHCOCH2)
436 µM,195 µM,CSCC[C@H](NC(=O)[C@H](C)NC(=O)CN)C(=O)N[C@@H](CCC(=O)O)C(=O)N[C@@H](CS)C(=O)N[C@@H](Cc1c[nH]c2ccccc12)C(=O)N[C@@H](CC(C)C)C(=O)N[C@@H](CCCCN)C(=O)N[C@@H](CCC(=O)O)C(=O)N[C@@H](CCCCN)C(=O)N[C@@H](CCC(=O)O)C(=O)N[C@@H](CS)C(=O)N[C@@H](CCCCN)C(=O)N[C@@H](CCC(N)=O)C(=O)N[C@@H](C)C(=O)NCC(=O)NCC(=O)NCC(=O)NCC(=O)N[C@@H](CCCCNC(=O)c1ccc2c(c1)C(=O)OC21c2ccc(O)cc2Oc2cc(O)ccc21)C(N)=O (H-GAMECWLKEKECKQAGGGGK(5FAM)-NH2)
,553 µM,CC(C)C[C@H](NC(=O)[C@H](CCC(=O)O)NC(=O)[C@H](CCCCN)NC(=O)[C@H](CC(N)=O)NC(=O)[C@@H](NC(=O)[C@H](CS)NC(=O)[C@H](CCC(=O)O)NC(=O)[C@H](Cc1c[nH]c2ccccc12)NC(=O)[C@H](C)NC(=O)CN)[C@@H](C)O)C(=O)N[C@@H](Cc1c[nH]c2ccccc12)C(=O)N[C@@H](CS)C(=O)N[C@@H](CCCCN)C(=O)N[C@@H](CCC(N)=O)C(=O)N[C@@H](C)C(=O)NCC(=O)NCC(=O)NCC(=O)NCC(=O)N[C@@H](CCCCNC(=O)c1ccc2c(c1)C(=O)OC21c2ccc(O)cc2Oc2cc(O)ccc21)C(N)=O (H-GAWECTNKELWCKQAGGGGK(5FAM)-NH2)
,140 µM,CSCC[C@H](NC(=O)[C@H](C)NC(=O)CN)C(=O)N[C@@H](CCC(=O)O)C(=O)N[C@H]1CSCC(=O)NCCCCNC(=O)CSC[C@@H](C(=O)N[C@@H](CCCCN)C(=O)N[C@@H](CCC(N)=O)C(=O)N[C@@H](C)C(=O)NCC(=O)NCC(=O)NCC(=O)NCC(=O)N[C@@H](CCCCNC(=O)c2ccc3c(c2)C(=O)OC32c3ccc(O)cc3Oc3cc(O)ccc32)C(N)=O)NC(=O)[C@H](CCC(=O)O)NC(=O)[C@H](CCCCN)NC(=O)[C@H](CCC(=O)O)NC(=O)[C@H](CCCCN)NC(=O)[C@H](CC(C)C)NC(=O)[C@H](Cc2c[nH]c3ccccc23)NC1=O (H-GAMECWLKEKECKQAGGGGK(5FAM)-NH2; linker 5-12 via CH2CONH(CH2)4NHCOCH2)
